From ChEMBL document CHEMBL3639191, “Benzimidazole derivatives: preparation and pharmaceutical applications” (2013)

Biological target: Histone deacetylase 1 (Homo sapiens, UniProt Q13547)
Experiment: (§1) Enzyme Assay: The assay have been carried out in a 96 well format and the BIOMOL using a fluorescent-based HDAC activity assay.

Histone deacetylase 1, sequence (Q13547 whole entry): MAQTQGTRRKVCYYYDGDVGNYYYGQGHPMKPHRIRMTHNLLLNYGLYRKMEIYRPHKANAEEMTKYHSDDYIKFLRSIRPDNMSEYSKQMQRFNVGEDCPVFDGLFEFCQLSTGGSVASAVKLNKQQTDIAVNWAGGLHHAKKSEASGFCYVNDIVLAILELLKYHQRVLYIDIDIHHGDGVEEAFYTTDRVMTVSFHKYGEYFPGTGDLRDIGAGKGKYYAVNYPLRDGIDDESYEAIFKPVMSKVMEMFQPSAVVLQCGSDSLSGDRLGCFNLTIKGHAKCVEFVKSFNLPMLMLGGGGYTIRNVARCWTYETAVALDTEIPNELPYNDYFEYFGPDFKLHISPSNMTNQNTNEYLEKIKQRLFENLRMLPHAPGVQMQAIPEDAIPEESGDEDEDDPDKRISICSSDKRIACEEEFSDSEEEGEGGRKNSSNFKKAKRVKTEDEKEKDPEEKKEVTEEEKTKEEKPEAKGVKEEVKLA

Structure (SMILES) | IC50
COc1cc(-c2nc3cc(/C=C/C(=O)NO)ccc3n2C)ccc1OCc1ccccc1 | 1370 nM
COc1ccc(-c2nc3cc(/C=C/C(=O)NO)ccc3n2CC(O)CO)cc1 (stereo unspecified) | 1380 nM
O=C(/C=C/c1ccc2c(c1)nc(C1CCCCC1)n2CCCO)NO | 3240 nM

Biological target: T1, Histone deacetylase 8 (Homo sapiens, UniProt Q9BY41)
T1 sequence (Q9BY41 whole entry): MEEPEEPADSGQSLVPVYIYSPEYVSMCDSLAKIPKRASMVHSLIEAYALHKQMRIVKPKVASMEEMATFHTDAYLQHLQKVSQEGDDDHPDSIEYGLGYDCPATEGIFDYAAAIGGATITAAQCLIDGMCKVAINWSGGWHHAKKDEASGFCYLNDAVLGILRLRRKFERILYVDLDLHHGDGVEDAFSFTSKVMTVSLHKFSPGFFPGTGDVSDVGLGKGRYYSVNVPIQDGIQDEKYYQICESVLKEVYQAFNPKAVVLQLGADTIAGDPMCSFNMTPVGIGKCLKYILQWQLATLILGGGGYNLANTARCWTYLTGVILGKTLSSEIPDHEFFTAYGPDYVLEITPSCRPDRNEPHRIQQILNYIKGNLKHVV
Experiment: as §1

Structure (SMILES) | IC50
COc1cc(-c2nc3cc(/C=C/C(=O)NO)ccc3n2C)ccc1OCc1ccccc1 | 1710 nM
COc1ccc(-c2nc3cc(/C=C/C(=O)NO)ccc3n2CC(O)CO)cc1 (stereo unspecified) | 262 nM
O=C(/C=C/c1ccc2c(c1)nc(C1CCCCC1)n2CCCO)NO | 203 nM
